Test results published in ChEMBL document CHEMBL1201862, “PubChem BioAssay data set” (2004).
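Test compounds were applied to cells in 96-well plates for 48 hours at 5 doses. Abbreviation: GI50, concentration required for 50% inhibition of growth.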 Active and inactive are the calls of the source. No stated cut-off is given here; in the data, active = GI50 up to about 1.1 µM and inactive = higher.

How the values were obtained:
Assay in all cases: growth of human tumour cells (NCI), 48 h
HL-60 = tested on: HL-60
HOP-62 = tested on: HOP-62
CCRF-CEM = tested on: CCRF-CEM
SF-268 = tested on: SF-268
RXF 393 = tested on: RXF 393
OVCAR-3 = tested on: OVCAR-3
NCI-H460 = tested on: NCI-H460
CAKI-1 = tested on: CAKI-1
A549 = tested on: A549
OVCAR-4 = tested on: OVCAR-4
SK-OV-3 = tested on: SK-OV-3
IGROV-1 = tested on: IGROV-1
786-0 = tested on: 786-0
UACC-62 = tested on: UACC-62
NCI-H522 = tested on: NCI-H522
SR = tested on: SR

Row | SMILES | GI50 (HL-60) | GI50 (HOP-62) | GI50 (CCRF-CEM) | GI50 (SF-268) | GI50 (RXF 393) | GI50 (OVCAR-3) | GI50 (NCI-H460) | GI50 (CAKI-1) | GI50 (A549) | GI50 (OVCAR-4) | GI50 (SK-OV-3) | GI50 (IGROV-1) | GI50 (786-0) | GI50 (UACC-62) | GI50 (NCI-H522) | GI50 (SR)
1 | COCC(=O)CP(=O)(OC)OC | > 100 µM (inactive) | > 100 µM (inactive) | > 100 µM (inactive) | > 100 µM (inactive) | > 100 µM (inactive) | > 100 µM (inactive) | > 100 µM (inactive) | > 100 µM (inactive) | > 100 µM (inactive) | > 100 µM (inactive) | > 100 µM (inactive) | > 100 µM (inactive) | > 100 µM (inactive) | > 100 µM (inactive) | > 100 µM (inactive) | 
2 | N/N=C1\C(=O)N(Cc2ccccc2)C(=O)C1C(=O)NCc1ccccc1 (centres undefined) | > 100 µM (inactive) | > 100 µM (inactive) | > 100 µM (inactive) | > 100 µM (inactive) | > 100 µM (inactive) | > 100 µM (inactive) | > 100 µM (inactive) |  | > 100 µM (inactive) | > 100 µM (inactive) |  | > 100 µM (inactive) | > 100 µM (inactive) | > 100 µM (inactive) | > 100 µM (inactive) | > 100 µM (inactive)
3 | Cc1cccc(CC(C)(C)C)c1NC(=O)C(=O)C(C(=O)c1ccc2ccccc2c1)C1OC(=O)c2ccccc21 (centres undefined) |  | 15.4 µM (inactive) |  | 8.53 µM (inactive) | 3.4 µM (inactive) | 58.5 µM (inactive) | 4.13 µM (inactive) | 19.2 µM (inactive) | 12.4 µM (inactive) | 41.5 µM (inactive) | 26.5 µM (inactive) | 16.7 µM (inactive) | 7.23 µM (inactive) | 7.52 µM (inactive) | 9.53 µM (inactive) | 3.72 µM (inactive)
4 | Cc1ccc(S(=O)(=O)N[C@H](C(=O)O)c2ccccc2)cc1 | > 100 µM (inactive) |  | > 100 µM (inactive) | > 100 µM (inactive) | > 100 µM (inactive) | > 100 µM (inactive) | > 100 µM (inactive) | > 100 µM (inactive) | > 100 µM (inactive) | > 100 µM (inactive) | > 100 µM (inactive) | > 100 µM (inactive) | > 100 µM (inactive) | > 100 µM (inactive) | > 100 µM (inactive) | 
5 | NC(=O)NC1C(C(N)=O)N(Cc2ccccc2)C(=O)N1Cc1ccccc1 (centres undefined) | > 100 µM (inactive) | > 100 µM (inactive) | > 100 µM (inactive) | > 100 µM (inactive) |  | > 100 µM (inactive) | > 100 µM (inactive) | > 100 µM (inactive) | > 100 µM (inactive) | > 100 µM (inactive) | > 100 µM (inactive) | > 100 µM (inactive) | > 100 µM (inactive) | > 100 µM (inactive) | > 100 µM (inactive) | > 100 µM (inactive)
6 | Cc1cccc(C(=O)O)c1C(=O)c1cccc2ccccc12 |  | > 100 µM (inactive) | > 100 µM (inactive) | > 100 µM (inactive) | > 100 µM (inactive) | > 100 µM (inactive) | > 100 µM (inactive) | > 100 µM (inactive) | > 100 µM (inactive) | > 100 µM (inactive) | > 100 µM (inactive) | > 100 µM (inactive) | > 100 µM (inactive) | > 100 µM (inactive) | > 100 µM (inactive) | > 100 µM (inactive)
7 | C=C1Cc2cc(OC)c(OC)c(OC)c2-c2ccc(SC)c(=O)cc21 | < 0.01 µM (active) | < 0.01 µM (active) | < 0.01 µM (active) | < 0.01 µM (active) | < 0.01 µM (active) | < 0.01 µM (active) | < 0.01 µM (active) |  | < 0.01 µM (active) | 4.26 µM (inactive) | < 0.01 µM (active) | < 0.0424 µM (active) | < 0.01 µM (active) | < 0.01 µM (active) | < 0.01 µM (active) | < 0.01 µM (active)
8 | N#CC(NNC(=O)Cc1ccccc1)c1ccc([N+](=O)[O-])cc1 (centres undefined) | > 100 µM (inactive) | > 100 µM (inactive) | > 100 µM (inactive) | > 100 µM (inactive) | > 100 µM (inactive) |  | > 100 µM (inactive) |  | > 100 µM (inactive) | > 100 µM (inactive) | > 100 µM (inactive) | > 100 µM (inactive) | > 100 µM (inactive) | > 100 µM (inactive) | > 100 µM (inactive) | > 100 µM (inactive)
9 | CC1=C(C(=O)NCc2ccccc2)C(c2ccc([N+](=O)[O-])cc2)C(C(=O)NCc2ccccc2)=C(C)N1 | 21.2 µM (inactive) | > 100 µM (inactive) |  | 50.7 µM (inactive) | 31.6 µM (inactive) | 46.5 µM (inactive) | 35.1 µM (inactive) | 26.7 µM (inactive) | 31.9 µM (inactive) | 17.4 µM (inactive) |  | 56.5 µM (inactive) | 44.2 µM (inactive) | 16.8 µM (inactive) | 28.5 µM (inactive) | 
